Experimental data: patent US20100105689A1, “NOVEL 1,4- AND 1,5-DIARYLSUBSTITUTED 1,2,3-TRIAZOLES USEFUL AS POTASSIUM CHANNEL MODULATORS” (priority 2007, published 2010)

Legend:
[1] = target: T1, BK channels heterologously expressed in Xenopus laevis oocytes (Homo sapiens, UniProt Q12791); assay: BK channel opening activity, two-electrode voltage clamp in oocytes; assay type: cell-based; conditions: Compound at 30 μM, step from −40 mV to +30 mV, added after a stable current level was reached, FIG. 1
T1 construct: expressed in transfected cells; host or cells: Xenopus laevis oocytes
T1 sequence (Q12791 whole entry): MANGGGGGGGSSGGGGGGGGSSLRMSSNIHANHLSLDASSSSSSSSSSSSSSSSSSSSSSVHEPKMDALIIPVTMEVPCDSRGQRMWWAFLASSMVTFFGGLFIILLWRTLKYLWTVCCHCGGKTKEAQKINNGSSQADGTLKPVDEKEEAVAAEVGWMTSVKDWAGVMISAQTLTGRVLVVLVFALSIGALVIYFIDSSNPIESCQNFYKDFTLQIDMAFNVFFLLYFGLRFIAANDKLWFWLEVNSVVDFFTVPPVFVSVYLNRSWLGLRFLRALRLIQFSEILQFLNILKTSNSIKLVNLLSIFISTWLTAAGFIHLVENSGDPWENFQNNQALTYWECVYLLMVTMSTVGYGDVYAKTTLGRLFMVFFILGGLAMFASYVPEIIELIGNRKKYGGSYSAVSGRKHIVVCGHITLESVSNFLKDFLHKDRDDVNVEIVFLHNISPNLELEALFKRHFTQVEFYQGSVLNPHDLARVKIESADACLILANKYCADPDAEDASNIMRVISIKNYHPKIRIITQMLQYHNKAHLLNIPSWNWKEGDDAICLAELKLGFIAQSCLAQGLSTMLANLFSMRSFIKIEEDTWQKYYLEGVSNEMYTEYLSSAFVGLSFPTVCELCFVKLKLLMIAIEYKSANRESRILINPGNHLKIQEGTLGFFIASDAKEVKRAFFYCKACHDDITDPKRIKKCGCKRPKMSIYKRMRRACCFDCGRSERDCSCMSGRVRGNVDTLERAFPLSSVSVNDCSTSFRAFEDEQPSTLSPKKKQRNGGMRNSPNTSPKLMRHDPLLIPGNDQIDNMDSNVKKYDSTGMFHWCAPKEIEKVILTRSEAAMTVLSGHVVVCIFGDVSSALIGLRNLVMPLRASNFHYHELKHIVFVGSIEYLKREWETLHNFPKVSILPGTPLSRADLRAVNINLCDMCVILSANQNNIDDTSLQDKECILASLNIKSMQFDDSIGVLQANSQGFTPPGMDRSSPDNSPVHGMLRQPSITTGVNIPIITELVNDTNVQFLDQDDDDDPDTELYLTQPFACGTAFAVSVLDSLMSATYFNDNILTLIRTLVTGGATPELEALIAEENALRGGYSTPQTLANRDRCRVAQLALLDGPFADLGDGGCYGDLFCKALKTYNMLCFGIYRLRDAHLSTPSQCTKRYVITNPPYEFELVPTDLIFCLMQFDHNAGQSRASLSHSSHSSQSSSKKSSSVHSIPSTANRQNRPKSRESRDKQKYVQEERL
Description: In this example the BK channel opening activity of a 1,5-diarylsubstituted 1,2,3-triazole derivative for use according to the invention, i.e. CMPD-2 (herein designated Compound A), is determined using BK channels heterologously expressed in Xenopus laevis oocytes.
The electrical current through the BK channel is measured conventional two-electrode voltage clamp. BK current is activated by repeated step protocols. In brief, this protocol goes from a resting membrane potential of −40 mV lasting for 5 s to a depolarised step to +30 mV lasting for 1 s. The protocol was repeated continuously.
Having reached a stable current level, Compound A (30 μM), was added.

| Compound | melting point | BK current activated by depolarisation (BK channel opening activity) [1] |
| --- | --- | --- |
| FC(F)(F)c1cccc(-c2cnnn2-c2cc(Cl)ccc2OCc2nnn[nH]2)c1 [CMPD-6, 5-{4-Chloro-2-[5-(3-trifluoromethyl-phenyl)-[1,2,3]triazol-1-yl]-phenoxymethyl}-1H-tetrazole] | 181.1 to 183.6 °C | – |
| FC(F)(F)c1ccc(-c2ccc(-n3nncc3-c3cc(C(F)(F)F)cc(C(F)(F)F)c3)c(-c3nnn[nH]3)c2)cc1 [Compound A, 5-{4-[5-(3,5-Bis-trifluoromethyl-phenyl)-[1,2,3]triazol-1-yl]-4′-trifluoromethyl-biphenyl-3-yl}-1H-tetrazole] | – | marked increase |
| FC(F)(F)c1cccc(-c2cnnn2-c2cc(Cl)ccc2-c2nnn[nH]2)c1 [CMPD-3, 5-{4-Chloro-2-[5-(3-trifluoromethyl-phenyl)-[1,2,3]triazol-1-yl]-phenyl}-1H-tetrazole] | 230.5 to 232.1 °C | – |
